According to patent publication US8426203B2, “Culture medium containing gamma-aminobutyric acid, pipecolic acid or lithium for the maintenance of stem cells in an undifferentiated state” (Wisconsin Alumni Research Foundation, priority 2004, dated 2013):

Legend:
ES03-DL1-K hES cells = test: Cloning efficiency at different BME concentrations in TeSR1; format: cell-based, human
Protocol: FIG. 15 illustrates the growth of hES cells grown in mTeSR1 with five different concentrations of beta mercaptoethanol (βME). ES03-DL1-K were grown for one to five passages, visualized (a), counted to determine proliferation and cloning efficiency (b), and stained using […] for Oct-4 and SSEA-4 to identify differentiation status of the cells (c). The treatment concentrations consisted of 0, 1.75, 3.5, 7, and 14 μL βME/500 mL of total TeSR1 media. Results shown are the mean from growth in 3 wells/treatment. This experiment was repeated multiple times both with ES03-DL1-K and H9-WA09 cells with similar results.
Specifically, to optimize the physiochemical environment, human ES cells with an EGFP reporter gene and a neomycin resistance cassette under control of the endogenous Oct-4 gene were utilized for the physiochemical optimization assays. […] At the end of the growth period, cells from independent wells were individualized by treatment with trypsin/EDTA, counted and subjected to FACS analysis as subsequently described. To determine cloning efficiency of the cells, resulting colonies were stained with BCIP/NTB alkaline phosphatase substrate kit IV (Vector Laboratories) and counted. Percentages were determined by dividing colony number obtained by the initial number of cells plated. […]

human ES cells = test: TeSR1 minus individual components, growth curve and FACS over three passages; format: cell-based
Protocol: FIG. 4 is a graphical representation of data showing that the medium described here results in robust growth of pluripotent stem cells in culture. Specifically, what is shown is growth curve analysis for human ES cells cultured in complete TeSR1 (positive control), and TeSR1 minus the following individual components: TGFβ, pipecolic acid (PA), GABA, LiCl and bFGF, and TeSR1 minus all five growth factors (TeSR1—ALL or negative control); 3×10^5 cells were plated at day 0 of each passage.
Triplicate wells of resulting cells were analyzed on day 6 of passage 3 by FACS for human ES cell markers. All results are presented for the H1 cell line; similar results were obtained for cell lines H7, H9 and H14.
Inventors used human ES cell lines H1, H7, H9 and H14 (Thomson, J. A. et al. Science 282, 1145-1147 (1998)) in a program of human ES cell media optimization that included modifications to the physiochemical environment, growth factor supplements and matrix components. To accomplish this, human ES cell lines H1, H7, H9, and H14 were cultured on Matrigel (Becton Dickinson) in fibroblast-conditioned medium as previously described (Xu, C. et al. Nature Biotechnology 19, 971-974 (2001)). Cells were transitioned into test media by direct passage from conditioned medium. Cultures of human ES cells were routinely passaged in clumps at approximately weekly intervals onto Matrigel or human matrix-coated plates by exposure to dispase (2.0 or 0.5 mg/ml respectively: Invitrogen). Following 7 minutes of dispase exposure, cells were rinsed 3 (three) times on the plate with medium, followed by gentle scraping to collect. Colonies were further broken up by gentle pipetting and then plated. The human matrix-coated plates were composed of 10 μg/cm^2 human collagen IV (Sigma or Becton Dickinson), 0.2 μg/cm^2 human vitronectin (Sigma), 5 μg/cm^2 human fibronectin (Sigma or Becton Dickinson) and 5 μg/cm^2 human laminin (Sigma). During the course of these studies we successfully used 4 lots of fibronectin, 2 lots of collagen, 3 lots of laminin, and 3 lots of vitronectin. For growth curve proliferation studies, 3-5×10^5 cells were plated on Day 0 of each passage into conditioned medium, TeSR1 or TeSR1 minus the following components: TGFβ, PA, GABA, LiCl and bFGF. Cells were cultured for three passages. Cells were harvested on Day 2-3 and Day 6-7 and counted using a Trypan Blue exclusion assay. At the end of passage three, cells were individualized by treatment with trypsin/EDTA and were analyzed by FACS for human ES cell markers Oct-4, SSEA-4, Tra 1-60 and Tra 1-81 as subsequently described.

[1] = system: human pluripotent stem cells; test: Omission of medium components, Oct-4 expression after seven days; format: cell-based; conditions: for effect of omitting constituent on percentage of undifferentiated cells: Oct-4 expression
Protocol: While a medium with all of the above constituents is sufficient and is preferred, not all of the components are necessary for the successful culture of human pluripotent stem cells. Depending on the amount of differentiated cells one is willing to tolerate, some of the components of the medium can be omitted, particularly if the medium is only used for a few passages. To further explore which constituents might be omitted, human pluripotent stem cells were cultured on variants of the above medium with differing components omitted. Two hundred thousand cells were plated and grown for seven days on each experimental medium, two wells per treatment. The cells were then assayed for expression of the transcription factor Oct-4, a recognized marker of undifferentiated cells.
The data from that experiment are presented graphically in FIG. 7, where the numbers of Oct-4 expressing cells in each experimental medium are presented as a fraction of that from the preferred medium TeSR1. […] The difference between the percentage of undifferentiated cells and the omitted constituent is quantitative. Regardless of the omitted constituent, the medium does work, at least to some degree for limited cell passages, without each of the omitted components.

Compound	cloning efficiency of the cells (ES03-DL1-K hES cells; 0 and 1.75 μL BME/500 mL of total media, modified TeSR1)	increase in cloning efficiency (ES03-DL1-K hES cells; BME omitted or less than about 0.1 mM in TeSR1 vs same medium with higher than about 0.1 mM BME)	effect of removal of the factor from TeSR1 on culture performance (human ES cells)	effect of omitting constituent on percentage of undifferentiated cells [1]	effect of removal from TeSR1 on total cell number and percentage of cells expressing ES cell markers (human ES cells)	necessity of component (Oct-4 expressing cells as fraction of TeSR1) ([1]; short-term culture, high levels of FGF)
OCCS [BME, β-mercaptoethanol]	large increases in cloning efficiency	at least 10%				
O=C(O)C1CCCCN1 (stereo not shown) [PA, pipecolic acid]			significantly decreased some parameter of culture performance	increased percentages of undifferentiated cells		
NCCCC(=O)O [GABA, gamma-aminobutyric acid]			significantly decreased some parameter of culture performance	increased percentages of undifferentiated cells		
[Cl-].[Li+] [LiCl, lithium chloride]			significantly decreased some parameter of culture performance	increased percentages of undifferentiated cells		
bFGF: fibroblast growth factor, also referred to as FGF2			significantly decreased some parameter of culture performance	increased percentages of undifferentiated cells	consistently decreased	
TGFβ: transforming growth factor beta			significantly decreased some parameter of culture performance			least necessary component
